According to US20110039762A1, “TARGETED ANTIMICROBIAL MOIETIES” (C3 JIAN, INC., priority 2009, published 2011):

Assays:
[1] = tested on: E. coli; assay: Kill or inhibit growth/proliferation; morphology, biofilm and growth disruption (Tables 5, 6); type: cell-based, Escherichia coli; parameters: key: A: Peptide aggregates; B: Less hyphal formation; Clumps; Diffuse clumps and small polyps; F: Diffuse growth; H: Thin; I: Growth inhibition; Microcolony formation; Rippled; Small polyps; Thick; W: Halo formation on top, microlonies on bottom; note: test concentration or dose not given here
[2] = tested on: A. baumannii; assay: MIC (broth microdilution); type: cell-based, Acinetobacter baumannii
Method: (§1) Typically, the in vitro antimicrobial activity of antimicrobial agents is tested using standard NCCLS bacterial inhibition assays, or MIC tests (see, National Committee on Clinical Laboratory Standards “Performance Standards for Antimicrobial Susceptibility Testing,” NCCLS Document M100-S5 Vol. 14, No. 16, December 1994; “Methods for dilution antimicrobial susceptibility test for bacteria that grow aerobically-Third Edition,” Approved Standard M7-A3, National Committee for Clinical Standards, Villanova, Pa.).
(§2) Briefly, ˜1×10^5 cfu/mL bacteria were diluted in TH (S. mutans), or Mueller-Hinton (MH) broth (all other organisms) and distributed to 96-well plates. Serially-diluted (2-fold) peptides were then added and the plates incubated at 37° C. for 18-24 h. […] All experiments were conducted 10 times.

[3] = tested on: S. epidermidis; assay: Kill or inhibit growth/proliferation; morphology, biofilm and growth disruption (Tables 5, 6); type: cell-based, Staphylococcus epidermidis; parameters: key: A: Peptide aggregates; B: Less hyphal formation; Clumps; Diffuse clumps and small polyps; F: Diffuse growth; H: Thin; I: Growth inhibition; Microcolony formation; Rippled; Small polyps; Thick; W: Halo formation on top, microlonies on bottom; note: test concentration or dose not given here
[4] = tested on: S. pneumoniae; assay: as above; type: cell-based, Streptococcus pneumoniae; parameters: key: A: Peptide aggregates; B: Less hyphal formation; Clumps; Diffuse clumps and small polyps; F: Diffuse growth; H: Thin; I: Growth inhibition; Microcolony formation; Rippled; Small polyps; Thick; W: Halo formation on top, microlonies on bottom
[5] = tested on: E. faecalis; assay: as above; type: cell-based, Enterococcus faecalis; parameters: key: A: Peptide aggregates; B: Less hyphal formation; Clumps; Diffuse clumps and small polyps; F: Diffuse growth; H: Thin; I: Growth inhibition; Microcolony formation; Rippled; Small polyps; Thick; W: Halo formation on top, microlonies on bottom; note: test concentration or dose not given here
[6] = tested on: microorganisms; assay: Peptides having multiple activities (targeting/binding, antimicrobial, growth or phenotype altering)
From the text: In certain embodiments, peptides described herein can have multiple activities. Thus for example, a peptide can have both binding/targeting activity and antimicrobial activity. Such peptides can be used, e.g., in a chimeric construct, for any or all of these properties. Thus, for example, a peptide designated “B” in Table 8 can be used as a targeting peptide. If it is also designated G or M it can also be used for antimicrobial activity.

[7] = tested on: MRSA; assay: Kill or inhibit growth/proliferation; morphology, biofilm and growth disruption (Tables 5, 6); type: cell-based, Methicillin-resistant Staphylococcus aureus; parameters: key: A: Peptide aggregates; B: Less hyphal formation; Clumps; Diffuse clumps and small polyps; F: Diffuse growth; H: Thin; I: Growth inhibition; Microcolony formation; Rippled; Small polyps; Thick; W: Halo formation on top, microlonies on bottom; note: test concentration or dose not given here
[8] = tested on: E. coli; type: cell-based, Escherichia coli; conditions: E. coli
Method: as §1, §2

[9] = tested on: S. mutans; type: cell-based, Streptococcus mutans; conditions: S. mutans
Method: as §1, §2

[10] = tested on: MRSA; assay: MIC (broth microdilution); type: cell-based, Methicillin-resistant Staphylococcus aureus
Method: as §1, §2

[11] = tested on: S. mutans; assay: Kill or inhibit growth/proliferation; morphology, biofilm and growth disruption (Tables 5, 6); type: cell-based, Streptococcus mutans; parameters: key: A: Peptide aggregates; B: Less hyphal formation; Clumps; Diffuse clumps and small polyps; F: Diffuse growth; H: Thin; I: Growth inhibition; Microcolony formation; Rippled; Small polyps; Thick; W: Halo formation on top, microlonies on bottom; note: test concentration or dose not given here
[12] = tested on: C. albicans; assay: as above; type: cell-based, Candida albicans; parameters: key: A: Peptide aggregates; B: Less hyphal formation; Clumps; Diffuse clumps and small polyps; F: Diffuse growth; H: Thin; I: Growth inhibition; Microcolony formation; Rippled; Small polyps; Thick; W: Halo formation on top, microlonies on bottom; note: test concentration or dose not given here
[13] = tested on: S. pneumoniae; assay: MIC (broth microdilution); type: cell-based, Streptococcus pneumoniae
Method: as §1, §2

[14] = tested on: S. epidermidis; type: cell-based, Staphylococcus epidermidis; conditions: S. epidermidis
Method: as §1, §2

[15] = tested on: B. subtilis; assay: MIC (broth microdilution); type: cell-based, Bacillus subtilis
Method in brief: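 MIC determined per NCCLS standard microdilution, with peptide 2-fold dilution series against ˜1×10^5 cfu/mL cells in Mueller-Hinton medium, incubated 18-24 h at 37° C.; ten independent experiments.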

[16] = tested on: C. jejuni; assay: Kill or inhibit growth/proliferation; morphology, biofilm and growth disruption (Tables 5, 6); type: cell-based, Campylobacter jejuni; parameters: key: A: Peptide aggregates; B: Less hyphal formation; Clumps; Diffuse clumps and small polyps; F: Diffuse growth; H: Thin; I: Growth inhibition; Microcolony formation; Rippled; Small polyps; Thick; W: Halo formation on top, microlonies on bottom; note: test concentration or dose not given here
[17] = tested on: M. luteus; assay: as above; type: cell-based, Micrococcus luteus; parameters: key: A: Peptide aggregates; B: Less hyphal formation; Clumps; Diffuse clumps and small polyps; F: Diffuse growth; H: Thin; I: Growth inhibition; Microcolony formation; Rippled; Small polyps; Thick; W: Halo formation on top, microlonies on bottom; note: test concentration or dose not given here
[18] = tested on: B. subtilis; assay: as above; type: cell-based, Bacillus subtilis; parameters: key: A: Peptide aggregates; B: Less hyphal formation; Clumps; Diffuse clumps and small polyps; F: Diffuse growth; H: Thin; I: Growth inhibition; Microcolony formation; Rippled; Small polyps; Thick; W: Halo formation on top, microlonies on bottom
[19] = tested on: microorganisms (e.g., bacteria, yeasts, fungi); assay: Targeting peptide binding to target microorganisms (Table 3); conditions: preferably 1x PBS
[20] = tested on: P. mirabilis; assay: Kill or inhibit growth/proliferation; morphology, biofilm and growth disruption (Tables 5, 6); type: cell-based; parameters: key: A: Peptide aggregates; B: Less hyphal formation; Clumps; Diffuse clumps and small polyps; F: Diffuse growth; H: Thin; I: Growth inhibition; Microcolony formation; Rippled; Small polyps; Thick; W: Halo formation on top, microlonies on bottom; note: test concentration or dose not given here
[21] = tested on: C. jeikeium; assay: as above; type: cell-based, Corynebacterium jeikeium; parameters: key: A: Peptide aggregates; B: Less hyphal formation; Clumps; Diffuse clumps and small polyps; F: Diffuse growth; H: Thin; I: Growth inhibition; Microcolony formation; Rippled; Small polyps; Thick; W: Halo formation on top, microlonies on bottom; note: test concentration or dose not given here
[22] = tested on: P. aeruginosa; type: cell-based, Pseudomonas aeruginosa; conditions: P. aeruginosa
Method: as §1, §2
Throughout, for Organism, effect (morphology, biofilm and growth disruption): test concentration or dose not given here.
Throughout, for Organism, effect: test concentration or dose not given here.

Substance | Organism, effect [1] | Organism, effect [3] | Organism, effect [4] | Activities [6] | Organism, effect [7] | MIC [10] | Organism, effect [11] | Organism, effect [17] | further results
SKFKVLRKIIIKEYKGELMLSIQKQR [PF-530] | E. coli (R) | S. epidermidis (H) | S. pneumoniae (R) | G M | MRSA (C) |  |  |  | MIC [2]: A. baumannii, 25 μM; Organism, effect [5]: E. faecalis (C)
FESKILNASKELDKEKKVNTALSFNSHQDFAKAYQNGKI [PF-606] |  | S. epidermidis (I) | S. pneumoniae (H) | G M | MRSA (I) | MRSA , 50 μM | S. mutans (I) |  | MIC [8]: E. coli, 50 μM; MIC [9]: S. mutans, 50 μM; Organism, effect [12]: C. albicans (B); MIC [13]: S. pneumoniae, 50 μM; MIC [14]: S. epidermidis, 50 μM
MGIIAGIIKFIKGLIEKFTGK [PF-006] |  | S. epidermidis (D) | S. pneumoniae (R) | G B M | MRSA (I) | MRSA , 50 μM |  | M. luteus (A) | MIC [15]: B. subtilis, 25 μM; Organism, effect [16]: C. jejuni (D); MIC [2]: A. baumannii, 50 μM; Organism, effect [18]: B. subtilis (I); Target(s) ([19]; microorganism the targeting peptide binds, binding in aqueous buffers varied by peptide solubility): S. epidermidis and M. luteus and E. coli and P. aeruginosa and MRSA and E. faecalis and C. jeikeium and C. jejuni
MIHLTKQNTMEALHFIKQFYDMFFILNFNV [PF-040] | E. coli (C) | S. epidermidis (D) | S. pneumoniae (D) | G B | MRSA (D) |  | S. mutans (F) | M. luteus (D) | Organism, effect [16]: C. jejuni (D); Organism, effect [20]: P. mirabilis (C); Organism, effect [18]: B. subtilis (D); Organism, effect [21]: C. jeikeium (D)
FIRKFLQKLHL [Peptide K-16] |  |  |  |  |  | MRSA , 25 μM |  |  | MIC [9]: S. mutans, 8 μM; MIC [22]: P. aeruginosa, 12.5 μM
PF-741: peptide having multiple activities (AKREDTVAAQIGANILNLIQ; Peptide with targeting and/or antimicrobial activity) |  |  |  | G B |  |  |  |  | Organism, effect (morphology, biofilm and growth disruption) [17]: M. luteus (C); Organism, effect (morphology, biofilm and growth disruption) [20]: P. mirabilis (C); Organism, effect (morphology, biofilm and growth disruption) [1]: E. coli (C); Organism, effect (morphology, biofilm and growth disruption) [3]: S. epidermidis (C); Organism, effect (morphology, biofilm and growth disruption) [4]: S. pneumoniae (D); Organism, effect (morphology, biofilm and growth disruption) [11]: S. mutans (D); Target(s) (microorganisms bound by the targeting peptide) ([19]; peptide binding in aqueous buffers varied by peptide solubility): S. epidermidis and M. luteus and P. mirabilis and P. aeruginosa and C. albicans and MRSA and S. pneumoniae and E. faecalis; Organism, effect (morphology, biofilm and growth disruption) [7]: MRSA (C)
TKKIELKRFVDAFVKKSYENYILERELKKLIKAINEELPTK [PF-600] | E. coli (H) | S. epidermidis (C) | S. pneumoniae (R) | G B M | MRSA (M) |  | S. mutans (S) | M. luteus (C) | MIC [8]: E. coli, 50 μM; MIC [13]: S. pneumoniae, 50 μM
